Series [1] can be described thus: Cytotoxicity against human Huh7ET cells assessed as reduction in cell viability after 4 days. It is filed as cell-based.
A short description of series [2]: Cytotoxicity against human W11.8 cells assessed as reduction in cell viability after 4 days. It is filed as cell-based.
For series [3], the target named is RNA-directed RNA polymerase (Hepacivirus hominis, UniProt O39930, M423V). Nature of the series: Inhibition of HCV genotype 1a NS5B M423V mutant. The arrangement: species or system Hepatitis C virus subtype 1a.
The next series deals with Hepatitis C virus. Nature of the series: Antiviral activity against HCV genotype 1 infected in human assessed as log10 reduction in viral load at 500 mg[…] bid for 3 days measured on day 4 post treatment. It is filed as functional, Hepacivirus hominis.
The target of series [4] is Nonstructural protein 5A (Hepatitis C virus) (UniProt Q5L478). In words: Ratio of EC50 for HCV genotype 1b NS5A infected in human l389lucubi- neo/NS3-375.1-containing Huh7ET cells in presence of 40% human serum to EC50 for HCV genotype 1b NS5A infected in human l389lucubi- neo/NS3-375.1-containing Huh7ET cells. Conditions: Hepatitis C virus subtype 1b.
In series [5] the target is RNA-directed RNA polymerase (Hepacivirus hominis, UniProt O39930, L419M). Nature of the series: Inhibition of HCV genotype 1a NS5B L419M mutant. The arrangement: species or system Hepatitis C virus subtype 1a.
The target of series [6] is RNA-directed RNA polymerase (Hepacivirus hominis, UniProt O39930, M423I). Nature of the series: Inhibition of HCV genotype 1a NS5B M423I mutant. Also on record: species or system Hepatitis C virus subtype 1a.
Another series concerns the target Nonstructural protein 5A (Hepatitis C virus, UniProt Q5L478). Nature of the series: Inhibition of HCV genotype 2a NS5A. The arrangement: species or system Hepatitis C virus subtype 2a.
Series [7] deals with RNA-directed RNA polymerase (Hepacivirus hominis, UniProt O39930, M423T). Nature of the series: Inhibition of HCV genotype 1a NS5B M423T mutant. The arrangement: species or system Hepatitis C virus subtype 1a.
The target of series [8] is RNA-directed RNA polymerase (Hepacivirus hominis, UniProt O39930, L419I). In words: Inhibition of HCV genotype 1a NS5B L419I mutant. Also on record: species or system Hepatitis C virus subtype 1a.

The term CC50 denotes the concentration at which the toxic effect on the cells reaches its halfway point. As to `COC[C@@H](C(=O)N(C)C)N(c1cc(C#CC(C)(C)C)sc1C(=O)O)C(=O)[C@H]1CC[C@H](C)CC1`, the CC50 at 96 h in series [1] and in [2] was greater than 20 µM each time.

`CN(C)C(=O)CN(c1cc(C#CC(C)(C)C)sc1C(=O)O)C(=O)[C@H]1CC[C@H](C)CC1`: the CC50 at 96 h in series [1] and in series [2] was greater than 20 µM in each case.

`CC(C)(C)C#Cc1cc(N(CC(=O)N2CCCC2)C(=O)[C@H]2CC[C@H](C)CC2)c(C(=O)O)s1`: the CC50 at 96 h in [1] and in [2] was greater than 20 µM throughout.

Turning to `CCN(CC)C(=O)CN(c1cc(C#CC(C)(C)C)sc1C(=O)O)C(=O)[C@H]1CC[C@H](C)CC1`, the 50% cytotoxic concentration (CC50) at 96 h in [1] and in [2] was greater than 20 µM in each case.

Take `CN(C)C(=O)[C@H](CO)N(c1cc(C#CC(C)(C)C)sc1C(=O)O)C(=O)[C@H]1CC[C@H](C)CC1`: the CC50 at 96 h in series [1] and in series [2] was greater than 20 µM throughout.

Broadly, the EC50 is the midpoint of the concentration-response curve. Higher therefore signals a less potent agent. Take `CC(C)(C)C#Cc1cc(N(C(=O)[C@H]2CC[C@H](C)CC2)[C@H]2CC[C@H](O)CC2)c(C(=O)O)s1` [LOMIBUVIR]: the half-maximal cytotoxic concentration (CC50) at 96 h in series [1] and in [2] was greater than 20 µM in each case. Further, the EC50 turned out to be 0.065 µM in series [3]; 0.32 µM in series [5]; 0.03 µM in series [6]; 8.1 µM at Nonstructural protein 5A; 0.31 µM in series [7]; 0.32 µM in series [8]. Moreover, in the series on Hepatitis C virus, the FC was determined as 3.4. For the same molecule, the Ratio EC50 in series [4] is 10 to 20.

In the case of `CC(C)NC(=O)CN(c1cc(C#CC(C)(C)C)sc1C(=O)O)C(=O)[C@H]1CC[C@H](C)CC1`, the CC50 at 96 h in [1] and in series [2] was greater than 20 µM in each case.

As for `CCC[C@@H](C(=O)N(C)C)N(c1cc(C#CC(C)(C)C)sc1C(=O)O)C(=O)[C@H]1CC[C@H](C)CC1`, the half-maximal cytotoxic concentration (CC50) at 96 h in [1] and in series [2] was greater than 20 µM throughout.

As to `CN1CCN(C(=O)CN(c2cc(C#CC(C)(C)C)sc2C(=O)O)C(=O)[C@H]2CC[C@H](C)CC2)CC1`, the CC50 at 96 h in series [1] and in series [2] was greater than 20 µM in each case.

`CC(C)(C)C#Cc1cc(N(CC(=O)N2CCCCC2)C(=O)[C@H]2CC[C@H](C)CC2)c(C(=O)O)s1`: the CC50 at 96 h in series [1] and in [2] was greater than 20 µM throughout.

Take `CC(C)[C@@H](C(=O)N(C)C)N(c1cc(C#CC(C)(C)C)sc1C(=O)O)C(=O)[C@H]1CC[C@H](C)CC1`: the CC50 at 96 h in series [1] and in series [2] was greater than 20 µM each time.

`CC(C)(C)C#Cc1cc(N(CC(=O)N2CC(O)C2)C(=O)[C@H]2CC[C@H](C)CC2)c(C(=O)O)s1`: the CC50 at 96 h in [1] and in series [2] was greater than 20 µM in each case.

Turning to `COC1CCN(C(=O)CN(c2cc(C#CC(C)(C)C)sc2C(=O)O)C(=O)[C@H]2CC[C@H](C)CC2)CC1`, the CC50 at 96 h in [1] and in series [2] was greater than 20 µM throughout.

Take `CNC(=O)CN(c1cc(C#CC(C)(C)C)sc1C(=O)O)C(=O)[C@H]1CC[C@H](C)CC1`: the half-maximal cytotoxic concentration (CC50) at 96 h in series [1] and in series [2] was greater than 20 µM throughout.

Turning to `CC[C@@H](C(=O)N(C)C)N(c1cc(C#CC(C)(C)C)sc1C(=O)O)C(=O)[C@H]1CC[C@H](C)CC1`, the CC50 at 96 h in series [1] and in series [2] was greater than 20 µM throughout.

`C[C@H](C(=O)N(C)C)N(c1cc(C#CC(C)(C)C)sc1C(=O)O)C(=O)[C@H]1CC[C@H](C)CC1`: the CC50 at 96 h in [1] and in series [2] was greater than 20 µM each time.

For the molecule `C[C@@H](C(=O)N(C)C)N(c1cc(C#CC(C)(C)C)sc1C(=O)O)C(=O)[C@H]1CC[C@H](C)CC1`, the CC50 at 96 h in series [1] and in [2] was greater than 20 µM each time.

As for `CC(C)(C)C#Cc1cc(N(CC(=O)N2CCC(O)CC2)C(=O)[C@H]2CC[C@H](C)CC2)c(C(=O)O)s1`, the CC50 at 96 h in series [1] and in [2] was greater than 20 µM throughout.

Consider `CN(C)CCN(C)C(=O)CN(c1cc(C#CC(C)(C)C)sc1C(=O)O)C(=O)[C@H]1CC[C@H](C)CC1`, for which the CC50 at 96 h in series [1] and in series [2] was greater than 20 µM in each case.
